In US20120289432A1, “PI3K MODULATORS, RHO KINASE MODULATORS AND METHODS OF IDENTIFYING AND USING SAME” (Corning Incorporated, priority 2009, published 2012):
Entries after “also recorded” stand apart in the source; their conditions may differ. Like-named read-outs stand apart in the source and are kept apart here.

Legend:
Type in all cases: cell-based, human
A549 cells [1] = assay: Label-free RWG (Epic) biosensor DMR assay, agonism mode, A549 cells; settings: for EC50: Homo sapiens; for maximal amplitude / maximal response of the N-DMR signal: n=4; for DMR (biosensor) signal of the compound in A549 cells: primary profile
Method: (§1) Cells were typically grown using ˜1 to 2×10^4 cells per well at passage 3 to 15 suspended in 50 μl of the corresponding culture medium in the biosensor microplate, and were cultured at 37° C. under air/5% CO2 for ˜1 day. Except for A431 which underwent one day culture followed by one starvation in serum free medium, all other cells were directly assayed without starvation. The confluency for all cells at the time of assays was ˜95% to 100%.
(§2) Epic® beta version wavelength interrogation system (Corning Inc., Corning, N.Y.) was used for whole cell sensing. This system consists of a temperature-control unit, an optical detection unit, and an on-board liquid handling unit with robotics. The detection unit is centered on integrated fiber optics, and enables kinetic measures of cellular responses with a time interval of ˜15 sec.
(§3) For biosensor cellular assays, molecule solutions were made by diluting the stored concentrated solutions with the HBSS (1× Hanks balanced salt solution, plus 20 mM Hepes, pH 7.1), and transferred into a 384 well polypropylene molecule storage plate to prepare a molecule source plate. Both molecule and marker source plates were made separately when a two-step assay was performed. In parallel, the cells were washed twice with the HBSS and maintained in 30 μl of the HBSS to prepare a cell assay plate. Both the cell assay plate and the molecule and marker source plate(s) were then incubated in the hotel of the reader system. After ˜1 hr of incubation the baseline wavelengths of all biosensors in the cell assay microplate were recorded and normalized to zero. Afterwards, a 2 to 10 minute continuous recording was carried out to establish a baseline, and to ensure that the cells reached a steady state. Cellular responses were then triggered by pipetting 10 μl of the marker solutions into the cell assay plate using the on-board liquid handler.
(§4) All studies were carried out at a controlled temperature (28° C.). At least two independent sets of experiments, each with at least three replicates, were performed.

A549 cells [2] = assay: DMR modulation of marker-induced responses (two-step assay) in A549 cells; settings: for modulation of the pinacidil response in A549 cells: compound pretreatment ~1 hr (10 micromolar), then pinacidil 10 micromolar; for modulation of the forskolin response (P-DMR) in A549 cells / modulation of the histamine response (early and late P-DMR) in A549 cells: inhibitor 10 micromolar; for modulation of the forskolin response (P-DMR) in A549 cells: forskolin 16 micromolar; for modulation of the histamine response (early and late P-DMR) in A549 cells: histamine 10 micromolar
Method: (§5) The index was generated after normalizing each marker-induced DMR signal in the presence of the inhibitor to its corresponding signal in the absence of the inhibitor. The percentage of modulation for each marker by the inhibitor was plotted as a function of the marker. As shown from left to right in a sequential order, the DMR events used for the basis of the modulation percentage calculation are: the N-DMR (50 min after stimulation) for pinacidil in A549, the P-DMR (50 min after stimulation) for forskolin in A549, the early P-DMR event (˜10 min after histamine stimulation) and the late P-DMR event (˜30 min after histamine stimulation) for histamine in A549, and the early P-DMR event (˜5 min after EGF stimulation) and the subsequent N-DMR event (˜30 min after EGF stimulation) for EGF in A431 cells. In all cases, the amplitudes of respective DMR events were used as the basis to calculate the percentages of modulation by the PI3K inhibitors. The same procedure was used to generate FIGS. 8 to 14.
as §1, §3
(§6) To study the influence of molecules on a marker-induced response, a second stimulation with the marker at a fixed dose (typically at EC80 or EC100) was applied. The resonant wavelengths of all biosensors in the microplate were normalized again to establish a second baseline, right before the second stimulation. The two stimulations were usually separated by ˜1 hr.
as §4

A549 and A431 cells = assay: DMR index against panels of markers across A549 and A431 cells, compared with LY294002; settings: markers pinacidil, forskolin, histamine (A549), EGF (A431)
Method: as §5
Optical biosensors such as RWG biosensor measure dynamic mass redistribution (DMR) signals of cells upon stimulation. A DMR index contains the primary DMR profile or signal of a chemical acting on a panel of live cells, and the modulation index of the chemical against panels of markers across the panel of cells, a panel of markers for each cell line. […]

A431 cells = assay: DMR modulation of the EGF-induced response in quiescent A431 cells
Method: as §5, §1, §3, §6, §4

HepG2 cells [3] = assay: DMR modulation of the ODN2006-induced response in HepG2 cells; settings: inhibitor 10 micromolar, ODN2006 500 nM
Method: as §1
as §3, with “Cellular responses were then triggered by pipetting 10 μl of the marker solutions into the cell assay plate using the on-board liquid handler.” left out

HepG2 cells [4] = assay: Label-free RWG biosensor DMR assay, agonism mode, HepG2 cells; settings: primary profile
Method: as §1, §2
(§7) For biosensor cellular assays, molecule solutions were made by diluting the stored concentrated solutions with the HBSS (1× Hanks balanced salt solution, plus 20 mM Hepes, pH 7.1), and transferred into a 384 well polypropylene molecule storage plate to prepare a molecule source plate. […] Both the cell assay plate and the molecule and marker source plate(s) were then incubated in the hotel of the reader system. After ˜1 hr of incubation the baseline wavelengths of all biosensors in the cell assay microplate were recorded and normalized to zero. […]

A549 and HepG2 cells = assay: Biosensor index against panel of cells/markers (A549 and HepG2), compared with Y-27632
Text: It is well known that many kinas inhibitors often display polypharmacology (i.e., many kinase inhibitors can modulate the activity of multi-targets in a cell). In addition, drugs including kinase inhibitors often display cell- or tissue-dependent phenotypic pharmacology, due to the many cellular factors including post-transcriptional modifications, compartmentalization of signaling cascades, alteration of key gene products in the pathway, receptor oligomerization, and constitutive receptor activity. […] Thus, the primary modes of action of a drug or drug candidate molecule, including ROCK inhibitors, are a sum of at least several types of pharmacology—polypharmacology, phenotypic pharmacology and systems (integrative) pharmacology. To correctly detect the phenotypic pharmacology of a ROCK inhibitor that acts via the inhibition of ROCK activity in live cell, one needs a panel of cells as well as panels of markers using the biosensor cellular assays. Thus, a ROCK inhibitor responsive cell line, A549, and a ROCK inhibitor unresponsive cell line, HepG2, were chosen as model systems. […]

HT-29 cells = assay: Label-free RWG biosensor DMR assay, agonism mode, HT-29 cells; settings: primary profile
Method: as §1, §2, §7

A549 cells [5] = assay: Desensitization of pretreated A549 cells to stimulation with ROCK inhibitor Y-27632; settings: pretreatment 10 micromolar ~1 hour, then Y-27632 at EC100 (10 micromolar)
Text: FIG. 19 The optical biosensor DMR signals of human lung cancer cell line A549 in response to a well-known Rho kinase inhibitor […] (10 micromolar) in the absence (“buffer”) and presence of two compounds (the Rho kinase inhibitor Y27632, and another Rho kinase inhibitor “compound”). Either of these two inhibitors at 10 micromolar was used to pretreat the A549 cells for ˜1 hr, before the stimulation with Y27632. The desensitization of cells to the second stimulation with Y27632 is an indicator that the compound used for the pretreatment of the cells is a Rho kinase inhibitor.
For biosensor cellular assays, molecule solutions were made by diluting the stored concentrated solutions with the HBSS (1× Hanks balanced salt solution, plus 20 mM Hepes, pH 7.1), and transferred into a 384 well polypropylene molecule storage plate to prepare a molecule source plate. Both molecule and marker source plates were made separately when a two-step assay was performed. In parallel, the cells were washed twice with the HBSS and maintained in 30 μl of the HBSS to prepare a cell assay plate. Both the cell assay plate and the molecule and marker source plate(s) were then incubated in the hotel of the reader system. After ˜1 hr of incubation the baseline wavelengths of all biosensors in the cell assay microplate were recorded and normalized to zero. […]

[6] = inhibitor 10 micromolar, EGF 32 nM

CC(N/C(=N\C#N)Nc1ccncc1)C(C)(C)C (stereo not drawn) [pinacidil]
EC50 (A549 cells [1]; stimulation with pinacidil, read-out: EC50 of the biosensor signal): ~5 µM

O=c1cc(N2CCOCC2)oc2c(-c3ccccc3)cccc12 [LY294002]
EC50 (A549 cells [1]; 50 min, N-DMR amplitudes ~50 min after stimulation, n=4, read-out: EC50 of the N-DMR signal): 14.7 ± 1.5 µM | maximal amplitude / maximal response of the N-DMR signal (A549 cells [1]): ~400 picometers | modulation of the pinacidil response (N-DMR) (A549 cells [2]; N-DMR 50 min after stimulation, marker signal with inhibitor normalized to signal without, FIG. 7C): −9% | modulation of the forskolin response (P-DMR) (A549 cells [2]; P-DMR 50 min after stimulation, FIG. 7C): +33% | modulation of the histamine response, early P-DMR (A549 cells [2]; ~10 min after histamine stimulation, FIG. 7C): +41% | modulation of the histamine response, late P-DMR (A549 cells [2]; ~30 min after histamine stimulation, FIG. 7C): +90%

O=c1cc(N2CCNCC2)oc2c(-c3ccccc3)cccc12 [LY303511]
type of DMR index compared with the PI3K inhibitor LY294002 (A549 and A431 cells): completely distinct type of DMR index

COC[C@H]1OC(=O)c2coc3c2[C@@]1(C)C1=C(C3=O)[C@@H]2CCC(=O)[C@@]2(C)C[C@H]1OC(C)=O [wortmannin]
EC50 (A549 cells [1]; 50 min, N-DMR amplitudes ~50 min after stimulation, n=4, read-out: EC50 of the DMR signal): 0.0727 ± 0.0034 µM | maximal amplitude / maximal response of the N-DMR signal (A549 cells [1]): ~700 picometers

O=c1c(O)c(-c2ccc(O)c(O)c2)oc2cc(O)cc(O)c12 [quercetin]
modulation of the pinacidil response in A549 cells (A549 cells [2]): little or not modulation | modulation of the forskolin response (P-DMR) in A549 cells (A549 cells [2]): potentiated; also recorded: significant potentiation | modulation of the histamine response (early and late P-DMR) in A549 cells (A549 cells [2]): potentiated; also recorded: significant potentiation | modulation index score, forskolin (A549 cells [2]; score +1 per 10% modulation): 2 | modulation index score, histamine early P-DMR (A549 cells [2]; score +1 per 10% modulation): 4 | modulation index score, histamine late P-DMR (A549 cells [2]; score +1 per 10% modulation): 9 | modulation index score, pinacidil (A549 cells [2]; score +1 per 10% positive modulation, opposite for negative): −1 | modulation of the N-DMR event of the EGF response in A431 cells (A431 cells; [6]): attenuated | modulation of the P-DMR event of the EGF response in A431 cells (A431 cells; [6]): small attenuation | modulation index score, EGF N-DMR (A431 cells; score +1 per 10% modulation): −5 | modulation index score, EGF P-DMR (A431 cells; score +1 per 10% modulation): 0 | modulation of the ODN2006 DMR signal in HepG2 cells (HepG2 cells [3]): slightly attenuated

CDK1/2 inhibitor III
DMR (biosensor) signal of the compound in A549 cells (A549 cells [1]): negative DMR signal | DMR (biosensor) signal of the compound in HepG2 cells (HepG2 cells [4]): small decaying signal | modulation of the biosensor signals of the markers in the panel (A549 and HepG2 cells; pinacidil, poly(IC), PMA, SLIGKV-amide, forskolin, histamine (A549), ODN2006 (HepG2)): attenuated the biosensor signals of most of markers | biosensor index compared with the Y-27632 biosensor index (A549 and HepG2 cells; primary profiles in A549 and HepG2 and modulation index against the panel of markers): quite distinct biosensor index

C[C@@H](N)[C@H]1CC[C@H](C(=O)Nc2ccncc2)CC1 [Y-27632]
DMR (biosensor) signal of the compound in A549 cells (A549 cells [1]): detectable, and dose-dependent biosensor signals; also recorded: characteristic negative DMR signal | DMR (biosensor) signal of the compound in HepG2 cells (HepG2 cells [4]): net-zero DMR signal | DMR (biosensor) signal of the compound in HT-29 cells (HT-29 cells): detectable, and dose-dependent biosensor signals | modulation of the pinacidil response in A549 cells (A549 cells [2]): complete or significant attenuation; also recorded: attenuated | modulation of the pinacidil response in A549 cells (A549 cells [2]; listed as Y027632): dose-dependently attenuate | modulation of the pinacidil response in A549 cells (A549 cells [2]; listed as Y27632): fully attenuated; also recorded: almost completely attenuated | modulation of the forskolin response (P-DMR) in A549 cells (A549 cells [2]): potentiated | modulation of the histamine response (early and late P-DMR) in A549 cells (A549 cells [2]): potentiated | modulation of the PMA response in A549 cells (A549 cells [2]; pretreatment 10 micromolar): potentiated | modulation of the SLIGKV response in A549 cells (A549 cells [2]; pretreatment 10 micromolar): potentiated | modulation of the poly(IC) response in A549 cells (A549 cells [2]; pretreatment 10 micromolar): potentiated | modulation of the ODN2006 DMR signal in HepG2 cells (HepG2 cells [3]): potentiated | desensitization of A549 cells to second stimulation with Y-27632 (A549 cells [5]): significantly caused the cells desensitize
